Literature values in publication PMC7914841, “Systemic Delivery of hGhrelin Derivative by Lyophilizate for Dry Powder Inhalation System in Monkeys” (Pharmaceutics, 2021).
Where no end group is shown, it is not given here. The star is where a group is joined. Octanoyl = CCCCCCCC(=O)*

Test system: growth hormone (GH) release
Conditions: healthy humans, intravenously injected

Substance: ghrelin: peptide hormone of 28 amino acids, O-n-octanoylated at the 3rd serine residue (GSS(Octanoyl)FLSPEHQRVQQRKESKKPPAKLQPR; UniProt Q9UBU3 24-51, looked up)
- ratio of AUC of GH, 5 µg/kg vs 1 µg/kg: 1.3–1.6 times
